According to the NIST ThermoML archive (doi:10.1016/j.jct.2011.12.030):

Details: Liquid, Vibrating tube method

CCOS(=O)(=O)[O-].CCn1cc[n+](C)c1 [1-ethyl-3-methylimidazolium ethyl sulfate]
mass density [kg/m3]
Details | 100 kPa | 1000 kPa | 10000 kPa | 20000 kPa | 40000 kPa | 60000 kPa | 80000 kPa | 100000 kPa | 120000 kPa
278.15 K | 1251.9 | 1252.2 | 1255.7 | 1259.5 | 1266.8 | 1273.7 | 1280.2 | 1286.5 | 1292.2
298.15 K | 1237 | 1237.3 | 1241 | 1245 | 1252.6 | 1259.7 | 1266.5 | 1273.1 | 1279.3
313.15 K | 1226.6 | 1227 | 1230.8 | 1235 | 1242.8 | 1250.3 | 1257.3 | 1264.1 | 1270.5
333.15 K | 1213 | 1213.4 | 1217.4 | 1221.7 | 1230 | 1237.8 | 1245.2 | 1252.3 | 1259.1
348.15 K | 1203.1 | 1203.6 | 1207.7 | 1212.3 | 1220.9 | 1228.9 | 1236.5 | 1243.8 | 1250.8
373.15 K | 1187.3 | 1187.3 | 1191.8 | 1196.6 | 1205.8 | 1214.2 | 1222.2 | 1229.7 | 1237
398.15 K | 1171.4 | 1171 | 1175.9 | 1181 | 1190.7 | 1199.7 | 1208.1 | 1216 | 1223.4

COCC[N+]1(C)CCCC1.O=S(=O)([N-]S(=O)(=O)C(F)(F)F)C(F)(F)F
mass density [kg/m3]
Details | 100 kPa | 1000 kPa | 10000 kPa | 20000 kPa | 40000 kPa | 60000 kPa | 80000 kPa | 100000 kPa | 120000 kPa
278.15 K | 1474.2 | 1474.9 | 1480.8 | 1487 | 1498.6 | 1509.5 | 1519.8 | 1529.3 | 1538.3
298.15 K | 1453.5 | 1454.1 | 1460.2 | 1466.9 | 1479.2 | 1490.6 | 1501.4 | 1511.4 | 1520.9
313.15 K | 1439.1 | 1440.1 | 1446.5 | 1453.5 | 1466.4 | 1478.4 | 1489.4 | 1499.8 | 1509.6
333.15 K | 1420.8 | 1421.6 | 1428.5 | 1435.9 | 1449.5 | 1462.2 | 1473.7 | 1484.6 | 1494.8
348.15 K | 1407.3 | 1408 | 1415.4 | 1423.2 | 1437.5 | 1450.5 | 1462.5 | 1473.6 | 1484.2
373.15 K | 1385.3 | 1385.7 | 1393.4 | 1401.8 | 1417.2 | 1430.9 | 1443.5 | 1455.2 | 1466.3
398.15 K | 1363.2 | 1363.3 | 1372 | 1381 | 1397.4 | 1412 | 1425.4 | 1437.9 | 1449.6
